target: T1, Transcription factor SOX-18 (Mouse, UniProt P43680); assay: Fluorescence Polarization Assay; details: pH 7.5; 37 °C
T1 sequence (P43680 whole entry): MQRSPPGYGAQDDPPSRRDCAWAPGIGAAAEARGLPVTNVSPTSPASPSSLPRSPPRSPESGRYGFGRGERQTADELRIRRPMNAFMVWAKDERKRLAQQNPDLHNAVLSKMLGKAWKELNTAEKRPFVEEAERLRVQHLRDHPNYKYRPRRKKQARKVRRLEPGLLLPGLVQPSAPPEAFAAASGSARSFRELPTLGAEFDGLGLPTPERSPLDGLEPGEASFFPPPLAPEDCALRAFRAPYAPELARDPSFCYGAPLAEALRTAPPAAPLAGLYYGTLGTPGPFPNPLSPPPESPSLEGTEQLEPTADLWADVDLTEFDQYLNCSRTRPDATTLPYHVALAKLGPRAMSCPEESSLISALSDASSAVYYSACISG
Method: The DNA-binding competition assay was performed in 25 μL, in black 384-well plates, using either 30 mM HEPES (N-2-Hydroxyethylpiperazine-N'-2-Ethanesulfonic Acid) (pH 7.5, with 100 mM KCl, 40 mM NaCl, 10 mM NH4OAc, 10 mM Guanidinium, 2 mM MgCl2, 0.5 mM EDTA, 0.01% NP-40) for mouse full length SOX18, or Tris-NaCl (10 mM Tris pH 8.0 and 100 mM NaCl) for SOX-HMG fragments. All experiments were performed using a 40bp double-stranded Prox1-DNA element with 5' fluorescein amidite (FAM) label (Sigma Proligo or InVitrogen). Optimum binding levels were obtained at 200 nM of mouse full length SOX18 and 60 nM of SOX-HMG fragment, in presence of 5 nM labelled DNA. Controls consisted of free labelled DNA (low FP milli-Polarization index, mP), labelled DNA in presence of protein (negative control, high mP), and labelled DNA and protein in presence of 400 time competing excess of unlabelled DNA (positive control, low mP). Depending on compound, final DMSO concentrations ranged from 2 to 3.33% v/v. After mixing protein, DNA probe and compound, plates were sealed and briskly agitated in the dark for 5 minutes at room temperature, 10 minutes at 37 °C, and 30 minutes at room temperature, before reading fluorescencepolarization on a Tecan M1000Pro (λexc = 485 nm, λem = 525 nm). All experiments were performed intriplicates.

SMILES	IC50 [µM]
O=C(O)c1c(O)cccc1CCc1ccc2ccccc2c1 [Sm4]	97.5
O=C(O)c1c(O)cccc1COCCC1C=CC=CC1 (stereo unspecified) [Sm5]	1110
COc1cccc(CCCCCCc2ccccc2)c1C(=O)O [Sm8]	327
COc1ccc(OCC(=O)c2ccc(O)cc2O)cc1 [Sm11]	3800
O=C(COc1ccc2ccccc2c1)c1ccc(O)cc1O [Sm12]	2880
Cc1cccc2c(=O)c3c(O)cc(O)cc3oc12 [Sm13]	481
